Assay results taken from patent US9862713B2, “Substituted bicyclic heteroaryl compounds as RXR agonists” (CONNEXIOS LIFE SCIENCES PVT. LTD., priority 2014, dated 2018).

Legend:
[1] = test system: HL-60 promyelocytic leukemia cell line; assay: HL-60 differentiation (NBT reduction); assay type: cell-based; settings: 72 h culture, NBT reduction at 540 nm
Procedure: Progression of promyelocytic leukemia can be abrogated by their differentiation. […] In order to estimate the differentiating ability of compound-40, HL-60 promyelocytic leukemia cell line was used as an in vitro model of the disease. HL-60 cells were cultured for 72 h as either control or under treatment as mentioned. After 72 h of culture, cells were exposed to nitro blue tetrazolium (NBT) solution containing phorbol myristate acetate (PMA) for 1 h at 37° C. Differentiated cells have increased oxidative burst potential which reduces NBT. Levels of reduced NBT were measured at 540 nm absorption.

[2] = test system: hRXR α, β, or γ; assay: Transactivation assay (RARE-Luc dual luciferase reporter in HEK-293 cells), activity relative to LG268; assay type: cell-based, human; settings: compound at 300 nM, 24 h; luciferase activity expressed relative to LG268
Outline: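 HEK-293 cells co-transfected with hRXR α, β or γ expression vector, RARE-firefly luciferase and renilla luciferase; 24 h later treated with agonist (100 nM, 300 nM, 1 uM) for 24 h. Firefly signal normalized to renilla; activity expressed relative to the RXR agonist LG268.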

Structure (SMILES)	HL-60 cells differentiation [1]	Activity at 300 nM [2]
CC1=C(/C=C/C(C)=C/C=C/C(C)=C/C(=O)O)C(C)(C)CCC1 [ATRA, all transretinoic acid, reference compound]	induced differentiation	
CC(C)CN(c1ccc(C(=O)O)cn1)c1nc2c(s1)C(C)(C)C=CC2(C)C [Compound 82, 6-[(2-methylpropyl) (4,4,7,7-tetramethyl-4,7-dihydro-1,3-benzothiazol-2-yl)amino]pyridine-3-carboxylic acid]		***** (>0.6)
CC(C)CN(c1ccc(C(=O)O)cc1)c1nc2c(s1)C(C)(C)C=CC2(C)C [Compound 83, 4-[(2-methylpropyl) (4,4,7,7-tetramethyl-4,7-dihydro-1,3-benzothiazol-2-yl)amino]benzoic acid]		* (<0.3)
CC1(C)CCC(C)(C)c2sc(N(C(=O)C3CCC3)c3ccc(C(=O)O)cn3)nc21 [Compound 84, 6-[(cyclobutylcarbonyl) (4,4,7,7-tetramethyl-4,5,6,7-tetrahydro-1,3-benzothiazol-2-yl)amino]pyridine-3-carboxylic acid]		** (>0.3 and <0.4)
CC(=O)N(c1ccc(C(=O)O)cn1)c1nc2c(s1)C(C)(C)CCC2(C)C [Compound 85, 6-[acetyl(4,4,7,7-tetramethyl-4,5,6,7-tetrahydro-1,3-benzothiazol-2-yl)amino]pyridine-3-carboxylic acid]		** (>0.3 and <0.4)
CC1(C)CC(O)C(C)(C)c2nc(N(CC3CC3)c3ccc(C(=O)O)cn3)sc21 (stereo not shown) [Compound 86, 6-[(cyclopropylmethyl) (5-hydroxy-4,4,7,7-tetramethyl-4,5,6,7-tetrahydro-1,3-benzothiazol-2-yl)amino]pyridine-3-carboxylic acid]		***** (>0.6)
COC1CC(C)(C)c2sc(N(CC3CC3)c3ccc(C(=O)O)cn3)nc2C1(C)C (stereo not shown) [Compound 87, 6-[(cyclopropylmethyl) (5-methoxy-4,4,7,7-tetramethyl-4,5,6,7-tetrahydro-1,3-benzothiazol-2-yl)amino]pyridine-3-carboxylic acid]		***** (>0.6)
CC(C)CN(c1ccc(C(=O)O)cc1)c1nc2c(s1)C(C)(C)CC(C)(O)C2(C)C (stereo not shown) [Compound 88, 4-[(5-hydroxy-4,4,5,7,7-pentamethyl-4,5,6,7-tetrahydro-1,3-benzothiazol-2-yl) (2-methylpropyl)amino]benzoic acid]		** (>0.3 and <0.4)
CC(C)CN(c1ccc(C(=O)O)cc1)c1nc2c(s1)C(C)(C)C/C(=N/O)C2(C)C [Compound 89, 4-{[(5Z)-5-(hydroxyimino)-4,4,7,7-tetramethyl-4,5,6,7-tetrahydro-1,3-benzothiazol-2-yl](2-methylpropyl)amino}benzoic acid]		** (>0.3 and <0.4)
CC(C)CN(c1ccc(C(=O)O)cc1)c1nc2c(s1)C(C)(C)CC(NCc1ccccc1)C2(C)C (stereo not shown) [Compound 90, 4-{[5-(benzylamino)-4,4,7,7-tetramethyl-4,5,6,7-tetrahydro-1,3-benzothiazol-2-yl](2-methylpropyl)amino}benzoic acid]		** (>0.3 and <0.4)
Cc1c(N(CC(C)C)c2ccc(C(=O)O)c(O)c2)sc2c1C(C)(C)CCC2(C)C [Compound 91, 2-hydroxy-4-[(2-methylpropyl) (3,4,4,7,7-pentamethyl-4,5,6,7-tetrahydro-1-benzothiophen-2-yl)amino]benzoic acid]		***** (>0.6)
CC1(C)CCC(C)(C)c2sc(Nc3ccc(C(=O)O)cc3O)nc21 [Compound 92, 3-hydroxy-4-[(4,4,7,7-tetramethyl-4,5,6,7-tetrahydro-1,3-benzothiazol-2-yl)amino]benzoic acid]		* (<0.3)
CC1(C)CCC(C)(C)c2sc(C(=O)c3ccc(C(=O)O)nc3)nc21 [Compound 93, 5-[(4,4,7,7-tetramethyl-4,5,6,7-tetrahydro-1,3-benzothiazol-2-yl)carbonyl]pyridine-2-carboxylic acid]		* (<0.3)
C=C(c1ccc(C(=O)O)nc1)c1nc2c(s1)C(C)(C)CCC2(C)C [Compound 94, 5-[1-(4,4,7,7-tetramethyl-4,5,6,7-tetrahydro-1,3-benzothiazol-2-yl)ethenyl]pyridine-2-carboxylic acid]		** (>0.3 and <0.4)
CC1(C)CCC(C)(C)c2sc(C(=O)c3ccc(C(=O)O)cn3)nc21 [Compound 95, 6-[(4,4,7,7-tetramethyl-4,5,6,7-tetrahydro-1,3-benzothiazol-2-yl)carbonyl]pyridine-3-carboxylic acid]		** (>0.3 and <0.4)
CC1(C)CCC(C)(C)c2sc(C(C)(O)c3ccc(C(=O)O)cn3)nc21 (stereo not shown) [Compound 96, 6-[1-hydroxy-1-(4,4,7,7-tetramethyl-4,5,6,7-tetrahydro-1,3-benzothiazol-2-yl)ethyl]pyridine-3-carboxylic acid]		** (>0.3 and <0.4)
C=C(c1ccc(C(=O)O)cc1)c1nc2c(s1)C(C)(C)CCC2(C)C [Compound 97, 4-[1-(4,4,7,7-tetramethyl-4,5,6,7-tetrahydro-1,3-benzothiazol-2-yl)ethenyl]benzoic acid]		** (>0.3 and <0.4)
CC1(C)CCC(C)(C)c2sc(C3(c4ccc(C(=O)O)cc4)CC3)nc21 [Compound 98, 4-[1-(4,4,7,7-tetramethyl-4,5,6,7-tetrahydro-1,3-benzothiazol-2-yl)cyclopropyl]benzoic acid]		**** (>0.5 to <0.6)
CC1(C)CCC(C)(C)c2sc(N(c3ccc(C(=O)O)cn3)C3CCC3)nc21 [Compound 99, 6-[cyclobutyl(4,4,7,7-tetramethyl-4,5,6,7-tetrahydro-1,3-benzothiazol-2-yl)amino]pyridine-3-carboxylic acid]		***** (>0.6)
CC1(C)CCC(C)(C)c2sc(N(c3ccccc3)c3ccc(C(=O)O)cc3)nc21 [Compound 100, 4-[phenyl(4,4,7,7-tetramethyl-4,5,6,7-tetrahydro-1,3-benzothiazol-2-yl)amino]benzoic acid]		***** (>0.6)
CC1(C)CCC(C)(C)c2sc(N(c3ccc(C(=O)O)cc3)c3ccccn3)nc21 [Compound 101, 4-[pyridin-2-yl(4,4,7,7-tetramethyl-4,5,6,7-tetrahydro-1,3-benzothiazol-2-yl)amino]benzoic acid]		*** (>0.4 and <0.5)
Cc1c(N(c2ccccc2)c2ccc(C(=O)O)cc2)sc2c1C(C)(C)CCC2(C)C [Compound 102, 4-[(3,4,4,7,7-pentamethyl-4,5,6,7-tetrahydro-1-benzothiophen-2-yl) (phenyl)amino]benzoic acid]		***** (>0.6)
Cc1c(N(c2ccc(C(=O)O)cc2)c2ccccn2)sc2c1C(C)(C)CCC2(C)C [Compound 103, 4-[(3,4,4,7,7-pentamethyl-4,5,6,7-tetrahydro-1-benzothiophen-2-yl) (pyridin-2-yl)amino]benzoic acid]		***** (>0.6)
Cc1c(N(Cc2ccccn2)c2ccc(C(=O)O)cc2)sc2c1C(C)(C)CCC2(C)C [Compound 104, 4-[(3,4,4,7,7-pentamethyl-4,5,6,7-tetrahydro-1-benzothiophen-2-yl) (pyridin-2-ylmethyl)amino]benzoic acid]		* (<0.3)
CC1(C)CCC(C)(C)c2sc(N(CC3CC3)c3ccc(CC(=O)O)cc3)nc21 [Compound 105, {4-[(cyclopropylmethyl) (4,4,7,7-tetramethyl-4,5,6,7-tetrahydro-1,3-benzothiazol-2-yl)amino]phenyl}acetic acid]		***** (>0.6)
CC1(C)CCC(C)(C)c2sc(N(CC3CC3)c3ccc(CCC(=O)O)cc3)nc21 [Compound 106, 3-{4-[(cyclopropylmethyl) (4,4,7,7-tetramethyl-4,5,6,7-tetrahydro-1,3-benzothiazol-2-yl)amino]phenyl}propanoic acid]		***** (>0.6)
CC1(C)CCC(C)(C)c2sc(N(CC3CC3)c3ccc(/C=C/C(=O)O)cc3)nc21 [Compound 107]		***** (>0.6)
CC1(C)CCC(C)(C)c2sc(N(CC3CC3)c3ccc(C4CC4C(=O)O)cc3)nc21 (stereo not shown) [Compound 108, 2-{4-[(cyclopropylmethyl) (4,4,7,7-tetramethyl-4,5,6,7-tetrahydro-1,3-benzothiazol-2-yl)amino]phenyl}cyclopropanecarboxylic acid]		***** (>0.6)
